This is an account of results in US20030078237A1, “Phenanthryl piperazinyl dicarboxylic acids as selective nmda receptor modulating agents” (priority 1999, published 2003).

The structures appear in SMILES notation. Read-outs that look alike come from different tables or passages of the source.

One test concerns NMDA receptors. The experiment in a line: NMDA-induced depolarizations of motoneurones, hemisected neonatal rat spinal cord. Type of test: cell-based. As to the method:
(§1) Hemisected neonatal rat spinal cords (Evans and Watkins, European Journal of Pharmacology, 50: 123-129, 1978) were isolated and wire electrodes were placed under the exposed ventral roots. The preparation was superfused with standard Ringers (containing in mM: NaCl 118, NaHCO3 25, KCl 3, CaCl2 2.5, D-glucose 12 and gassed with 95% O2/5% CO2). To record agonist-induced responses, 0.1 μM tetrodotoxin was included to block synaptic transmission and associated depolarizations. Agonist (N-methyl-D-aspartate (NMDA)) was superfused for 60-120 seconds at a rate of 1 ml/minute. The relative positive potentials recorded by the distal (to spinal cord) wire electrode compared to the proximal electrode was taken as an indication of motor neuron cell body depolarization. Antagonism of agonist-induced responses was observed by co-application of the antagonist PPDA.
(§2) AMPA and kainate are protypical agonists which show selectivity for, and predominantly activate, the AMPA and kainate subtypes of glutamate receptors. In additional assays, PPDA was tested at a concentration of 5 μM (which is approximately 20 times the Kd value for the antagonism of NMDA receptors) as an antagonist of AMPA (6 μM)-, kainate (50 μM)- and NMDA (50 μM)-induced depolarizations (approximate EC50 concentrations used) on neonatal rat motoneurones.

Test [1] deals with AMPA subtype of glutamate receptors. The experiment in a line: AMPA-induced depolarizations on neonatal rat motoneurones. It counts as cell-based. Particulars: PPDA 5 μM, AMPA 6 μM. On the procedure: as §1, §2
Test [2] concerns kainate subtype of glutamate receptors. The experiment in a line: kainate-induced depolarizations on neonatal rat motoneurones. It counts as cell-based. Particulars: PPDA 5 μM, kainate 50 μM. On the procedure:
as §1, §2

Test [3] has as its system Group I metabotropic glutamate (mGlu) receptor. The experiment in a line: ACPD-induced depolarizations on neonatal rat motoneurones. It counts as cell-based. As to conditions: PPDA 50 μM; ACPD 30 μM. As to the method: as §1
(§3) PPDA (50 μM) also had no effect on depolarizations following administration of (1S,3R)-1-amino-1,3-cyclopentane dicarboxylic acid (ACPD; 30 μM). APCD is a Group I metabotropic glutamate (mGlu) receptor agonist. The recited values were determined by using quantitative receptor autoradiography of [^3H]-glutamate labeled NMDA receptors in rat brain tissue sections.

The target of test [4] is T1, Native NMDA receptor, Medial Striatum (NR2B) (Rattus norvegicus, UniProt Q00960).
T1 construct: Native NMDA Receptor Potency; from tissue; host or cells: rat brain sections, medial striatum
The test can be described thus: quantitative receptor autoradiography of [3H]-glutamate labeled native NMDA receptors, medial striatum. It counts as binding. As to the method: as §3
(§4) The potency of PPDA for native NMDA receptors was also investigated in a Xenopus oocyte system.

Test [5] addresses T2, Native NMDA receptor, Cerebellum (NR2A) (Rattus norvegicus, UniProt Q00959).
T2 construct: Native NMDA Receptor Potency; from tissue; host or cells: rat brain sections, cerebellum
The experiment in a line: quantitative receptor autoradiography of [3H]-glutamate labeled native NMDA receptors, cerebellum NR2A. It counts as binding. On the procedure:
as §3, §4

Test [6] concerns the target T3, Native NMDA receptor, Cerebellum (NR2C) (Rattus norvegicus, UniProt Q00961).
T3 construct: Native NMDA Receptor Potency; from tissue; host or cells: rat brain sections, cerebellum
The test can be described thus: quantitative receptor autoradiography of [3H]-glutamate labeled native NMDA receptors, cerebellum NR2C. It counts as binding. As to the method: as §3, §4

The target in test [7] is Native NMDA receptor, Midline thalamus (NR2B/NR2D). The test can be described thus: quantitative receptor autoradiography of [3H]-glutamate labeled native NMDA receptors, midline thalamus. It counts as binding. As to conditions: [3H]-glutamate autoradiography, rat brain sections; read-out: Ki, native NMDA receptor potency, Midline thalamus (NR2B/NR2D). As to the method: as §3, §4

Test [8] deals with T4, NR1/NR2B (Rattus norvegicus, UniProt P35439+Q00960).
T4 construct: expressed in transfected cells; host or cells: Xenopus oocytes injected with in vitro transcribed RNA
T4 sequence (Q00960 27-1482, other chains not shown): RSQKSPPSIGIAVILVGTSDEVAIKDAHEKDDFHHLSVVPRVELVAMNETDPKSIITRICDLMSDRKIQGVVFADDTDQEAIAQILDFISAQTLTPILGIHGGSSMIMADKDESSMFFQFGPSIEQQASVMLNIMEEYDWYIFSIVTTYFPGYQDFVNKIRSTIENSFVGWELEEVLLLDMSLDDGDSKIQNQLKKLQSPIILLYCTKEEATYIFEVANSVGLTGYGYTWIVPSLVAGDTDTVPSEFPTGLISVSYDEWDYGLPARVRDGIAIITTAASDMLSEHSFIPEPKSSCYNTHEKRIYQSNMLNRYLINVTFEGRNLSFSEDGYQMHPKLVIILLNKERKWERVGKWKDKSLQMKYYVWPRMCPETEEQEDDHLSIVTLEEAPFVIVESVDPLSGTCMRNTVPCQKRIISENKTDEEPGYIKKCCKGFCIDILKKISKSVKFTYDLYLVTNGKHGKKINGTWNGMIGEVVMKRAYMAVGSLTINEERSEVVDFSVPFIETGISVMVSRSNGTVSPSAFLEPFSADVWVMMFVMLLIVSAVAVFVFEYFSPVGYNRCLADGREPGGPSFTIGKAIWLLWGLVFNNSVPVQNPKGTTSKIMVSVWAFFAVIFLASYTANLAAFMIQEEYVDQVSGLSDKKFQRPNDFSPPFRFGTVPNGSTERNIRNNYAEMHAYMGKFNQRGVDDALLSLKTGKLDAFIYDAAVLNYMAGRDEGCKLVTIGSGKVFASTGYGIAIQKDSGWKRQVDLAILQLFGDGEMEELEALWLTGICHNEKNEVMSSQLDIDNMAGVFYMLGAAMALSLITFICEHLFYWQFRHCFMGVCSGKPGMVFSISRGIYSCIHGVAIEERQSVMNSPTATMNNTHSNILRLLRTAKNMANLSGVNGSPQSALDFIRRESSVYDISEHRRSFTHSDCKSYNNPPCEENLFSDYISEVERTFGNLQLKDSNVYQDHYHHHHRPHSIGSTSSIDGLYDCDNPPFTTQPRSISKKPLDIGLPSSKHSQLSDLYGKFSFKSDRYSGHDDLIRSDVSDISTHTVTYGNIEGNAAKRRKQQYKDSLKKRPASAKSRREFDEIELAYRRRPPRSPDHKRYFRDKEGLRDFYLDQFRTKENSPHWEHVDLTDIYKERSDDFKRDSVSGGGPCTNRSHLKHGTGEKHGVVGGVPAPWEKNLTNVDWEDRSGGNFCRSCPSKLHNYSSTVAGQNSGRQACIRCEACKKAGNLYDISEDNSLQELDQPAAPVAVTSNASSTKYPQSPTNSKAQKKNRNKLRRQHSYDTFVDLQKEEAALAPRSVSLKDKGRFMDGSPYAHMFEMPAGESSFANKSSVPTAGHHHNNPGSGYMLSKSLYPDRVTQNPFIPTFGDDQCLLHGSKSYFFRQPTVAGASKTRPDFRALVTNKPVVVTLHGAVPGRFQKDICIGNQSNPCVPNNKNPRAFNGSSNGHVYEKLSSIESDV
The test can be described thus: two-microelectrode voltage clamp of recombinant NMDA receptors in Xenopus oocytes, NR1/NR2B. It counts as cell-based. On the procedure: (§5) RNA translation and transcription in Xenopus oocytes and electrophysiological recordings were performed as previously described (Monaghan D T, Larson H (1997) J Pharmacol Exp Ther 280:614 -620). Plasmids were linearized with NotI (NR1a), EcoRI (NR2A, NR2C, and NR2D), or SalI (NR2B) and transcribed in vitro using the mMessage mMachine RNA polymerase transcription kit (Ambion, Austin, Tex.). NR1 a was mixed 1:3 with NR2A, NR2B, NR2C, or NR2D RNA, and 2-50 ng of this mixture was injected into oocytes. Agonist-evoked responses were measured using a standard two-microelectrode voltage clamp (model OC-725B Oocyte Clamp; Warner Instruments, Hamden, Conn.) at a holding potential of −60 mV. Glutamate (10 μM) and glycine (10 μM) were applied until stable plateau responses were obtained; (±)-cis-1-(phenanthren-2-yl-carbonyl)-piperazine-2,3-dicarboxylic acid (PPDA) (0.1, 0.3, 1, 3, 10, or 30 μM) was then applied until steady-state blockade was obtained, followed by antagonist washout and full agonist responses. Current responses were captured and analyzed with AxoData (Axon Instruments, Foster City, Calif.) and GraphPad Prism (ISI Software, San Diego, Calif.) software. Ki values were corrected for agonist affinity according to the Cheng-Prusoff equation. Data in Table 3 are expressed as mean Kl±SEM. […]

The target of test [9] is T5, NR1/NR2C (Rattus norvegicus, UniProt P35439+Q00961).
T5 construct: expressed in transfected cells; host or cells: Xenopus oocytes injected with in vitro transcribed RNA
T5 sequence (Q00961 20-1237, other chains not shown): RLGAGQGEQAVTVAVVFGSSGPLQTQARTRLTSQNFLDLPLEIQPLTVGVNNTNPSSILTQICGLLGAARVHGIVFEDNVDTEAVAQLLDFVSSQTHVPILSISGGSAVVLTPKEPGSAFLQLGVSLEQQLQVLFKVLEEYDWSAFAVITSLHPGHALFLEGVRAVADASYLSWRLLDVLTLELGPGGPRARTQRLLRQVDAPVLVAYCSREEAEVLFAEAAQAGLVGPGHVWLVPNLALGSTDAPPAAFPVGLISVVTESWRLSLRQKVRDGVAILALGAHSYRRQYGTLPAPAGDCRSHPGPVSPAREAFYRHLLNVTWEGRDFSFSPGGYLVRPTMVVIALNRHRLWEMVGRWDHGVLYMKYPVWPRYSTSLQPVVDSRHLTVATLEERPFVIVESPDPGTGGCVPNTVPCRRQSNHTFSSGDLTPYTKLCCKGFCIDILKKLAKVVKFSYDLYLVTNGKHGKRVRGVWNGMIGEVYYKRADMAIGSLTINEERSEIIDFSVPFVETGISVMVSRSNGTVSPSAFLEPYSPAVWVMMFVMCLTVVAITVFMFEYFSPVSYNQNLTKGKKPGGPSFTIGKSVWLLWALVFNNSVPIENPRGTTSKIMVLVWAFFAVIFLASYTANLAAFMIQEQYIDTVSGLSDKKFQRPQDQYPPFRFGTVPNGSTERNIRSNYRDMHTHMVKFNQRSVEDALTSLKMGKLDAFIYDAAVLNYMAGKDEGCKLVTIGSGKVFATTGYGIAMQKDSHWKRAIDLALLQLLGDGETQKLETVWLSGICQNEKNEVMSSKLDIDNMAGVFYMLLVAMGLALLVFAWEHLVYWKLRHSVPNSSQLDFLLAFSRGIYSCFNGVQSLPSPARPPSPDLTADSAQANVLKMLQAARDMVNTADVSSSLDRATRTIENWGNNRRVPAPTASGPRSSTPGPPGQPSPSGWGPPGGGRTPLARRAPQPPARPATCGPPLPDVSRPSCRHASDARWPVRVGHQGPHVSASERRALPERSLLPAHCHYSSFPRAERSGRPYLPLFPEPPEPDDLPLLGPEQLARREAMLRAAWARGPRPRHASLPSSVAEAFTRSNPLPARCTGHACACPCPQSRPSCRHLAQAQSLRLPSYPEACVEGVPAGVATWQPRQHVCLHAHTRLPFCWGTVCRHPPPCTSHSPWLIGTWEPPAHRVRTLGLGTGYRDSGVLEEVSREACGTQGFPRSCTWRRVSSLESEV
The test can be described thus: two-microelectrode voltage clamp of recombinant NMDA receptors in Xenopus oocytes, NR1/NR2C. It counts as cell-based. On the procedure:
as §5

Test [10] deals with T6, NR1/NR2D (Rattus norvegicus, UniProt P35439+Q62645).
T6 construct: expressed in transfected cells; host or cells: Xenopus oocytes injected with in vitro transcribed RNA
The experiment in a line: two-microelectrode voltage clamp of recombinant NMDA receptors in Xenopus oocytes, NR1/NR2D. It counts as cell-based. As to the method: as §5

A further test has as its system native AMPA receptors. The experiment in a line: autoradiography, [3H]CNQX binding to native AMPA receptors. Particulars: PPDA 10 μM; 100 nM [3H]CNQX; n=3.
Test [11] relates to native non-NMDA glutamate receptors ([3H]kainate binding). The test can be described thus: autoradiography, [3H]kainate binding. As to conditions: PPDA 10 μM; 25 nM [3H]kainate; n=3.
Test [12] deals with T7, NR1/NR2A (Rattus norvegicus, UniProt Q00959).
T7 construct: expressed in transfected cells; host or cells: Xenopus oocytes injected with in vitro transcribed RNA
T7 sequence (Q00959 23-1464, other chains not shown): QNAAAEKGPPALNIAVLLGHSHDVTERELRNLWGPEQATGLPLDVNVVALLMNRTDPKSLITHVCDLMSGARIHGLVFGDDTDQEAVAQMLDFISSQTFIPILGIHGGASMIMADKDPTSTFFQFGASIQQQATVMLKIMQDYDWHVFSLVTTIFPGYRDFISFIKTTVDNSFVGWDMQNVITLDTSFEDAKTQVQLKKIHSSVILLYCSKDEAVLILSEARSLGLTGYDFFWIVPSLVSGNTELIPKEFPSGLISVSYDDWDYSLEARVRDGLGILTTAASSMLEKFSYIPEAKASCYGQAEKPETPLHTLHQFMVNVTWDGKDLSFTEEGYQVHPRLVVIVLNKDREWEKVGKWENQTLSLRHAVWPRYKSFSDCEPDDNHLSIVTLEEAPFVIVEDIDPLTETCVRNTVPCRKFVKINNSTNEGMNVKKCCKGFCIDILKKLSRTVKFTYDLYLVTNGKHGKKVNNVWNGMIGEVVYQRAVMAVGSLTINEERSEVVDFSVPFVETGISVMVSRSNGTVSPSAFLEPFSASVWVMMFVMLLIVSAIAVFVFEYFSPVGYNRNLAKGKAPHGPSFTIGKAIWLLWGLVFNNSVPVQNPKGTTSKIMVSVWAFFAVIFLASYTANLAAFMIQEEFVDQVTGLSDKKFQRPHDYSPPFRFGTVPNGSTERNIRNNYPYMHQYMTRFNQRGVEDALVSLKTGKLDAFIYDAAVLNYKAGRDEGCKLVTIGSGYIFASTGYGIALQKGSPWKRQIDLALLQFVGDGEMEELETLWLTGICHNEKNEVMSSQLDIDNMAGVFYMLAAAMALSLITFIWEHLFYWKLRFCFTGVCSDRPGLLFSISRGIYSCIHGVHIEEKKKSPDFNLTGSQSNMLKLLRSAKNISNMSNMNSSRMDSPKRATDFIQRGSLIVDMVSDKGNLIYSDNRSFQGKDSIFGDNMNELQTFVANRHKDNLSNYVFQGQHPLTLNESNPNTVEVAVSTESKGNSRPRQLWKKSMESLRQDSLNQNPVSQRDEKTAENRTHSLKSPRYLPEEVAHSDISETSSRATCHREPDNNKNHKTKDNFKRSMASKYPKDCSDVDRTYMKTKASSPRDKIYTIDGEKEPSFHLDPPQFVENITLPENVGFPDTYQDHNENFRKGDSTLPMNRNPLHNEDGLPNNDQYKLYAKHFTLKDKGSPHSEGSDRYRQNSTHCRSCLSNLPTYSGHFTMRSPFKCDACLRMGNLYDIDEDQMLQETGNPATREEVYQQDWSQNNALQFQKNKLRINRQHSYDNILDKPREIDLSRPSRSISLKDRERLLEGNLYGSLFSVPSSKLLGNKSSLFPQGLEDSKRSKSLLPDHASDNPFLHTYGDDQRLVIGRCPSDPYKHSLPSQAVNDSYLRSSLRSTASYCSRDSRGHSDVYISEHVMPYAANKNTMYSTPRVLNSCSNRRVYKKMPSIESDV
Particulars: recombinant, Xenopus oocytes; from Buller and Monaghan 1997, mean +/- SEM, n=4-6; cited from earlier work.

The target of test [13] is T8, NR1/NR2B (Rattus norvegicus, UniProt Q00960).
T8 construct: expressed in transfected cells; host or cells: Xenopus oocytes injected with in vitro transcribed RNA
Particulars: recombinant, Xenopus oocytes; from Buller and Monaghan 1997, mean +/- SEM, n=4-6; cited from earlier work.

Test [14] concerns the target T9, NR1/NR2C (Rattus norvegicus, UniProt Q00961).
T9 construct: expressed in transfected cells; host or cells: Xenopus oocytes injected with in vitro transcribed RNA
Particulars: recombinant, Xenopus oocytes; from Buller and Monaghan 1997, mean +/- SEM, n=4-6; cited from earlier work.

In test [15] the target is T10, NR1/NR2D (Rattus norvegicus, UniProt Q62645).
T10 construct: expressed in transfected cells; host or cells: Xenopus oocytes injected with in vitro transcribed RNA
As to conditions: recombinant, Xenopus oocytes; from Buller and Monaghan 1997, mean +/- SEM, n=4-6; cited from earlier work.

The target in test [16] is T11, NR1/NR2A (Rattus norvegicus, UniProt P35439+Q00959).
T11 construct: expressed in transfected cells; host or cells: Xenopus oocytes injected with in vitro transcribed RNA
The experiment in a line: two-microelectrode voltage clamp of recombinant NMDA receptors in Xenopus oocytes, NR1/NR2A. As to conditions: NR1a co-expressed in Xenopus oocytes, mean +/- SEM. Type of test: cell-based. On the procedure: as §5

T9 sequence (Q00961 20-1237, other chains not shown): as the sequence (Q00961 20-1237, other chains not shown) above
T3 sequence (Q00961 20-1237, other chains not shown): as above

The term Kd denotes the equilibrium constant for the complex coming apart. Turning to `O=C(O)[C@H]1NCCN(C(=O)c2ccc3c(ccc4ccccc43)c2)[C@H]1C(=O)O` (racemic) [PPDA, (±)-cis-1-(Phenanthrene-2-ylcarbonyl)Piperazine-2,3-Dicarboxylic Acid], the “antagonism of NMDA-induced depolarizations” value in the test on NMDA receptors (PPDA 5 μM, NMDA 50 μM, neonatal rat motoneurones) is reported as 88%. Also, at NMDA receptors (neonatal rat spinal cord, competitive antagonist, read-out: affinity (Kd), Schild analysis of NMDA-induced depolarizations), the Kd worked out at 247 nM. In addition, the “potency as antagonist of NMDA-induced depolarizations relative to CPP-ene” value in the test with NMDA receptors (spinal cord) was “as potent as CPP-ene”. The “antagonism of AMPA-induced depolarizations” value in test [1] stood at 15%. Besides, the “antagonism of kainate-induced depolarizations” value in test [2] was found to be 21%. For the same molecule, the “effect on ACPD-induced depolarizations” value in test [3] is reported as “no effect”. Moreover, the Ki is 540 nM in [4]; 7200 nM in test [5]; 390 nM in test [6]; 310 nM in test [7]; 350 nM at NR1/NR2B [8]; 70 nM at NR1/NR2C [9]. For the same molecule, on NR1/NR2D [10], the Ki came to 110 nM. The “inhibition of [3H]CNQX binding to native AMPA receptors” value in the test with native AMPA receptors is given as 44.6±1.3%. In addition, the “inhibition of [3H]kainate binding” value in test [11] stood at 9.3±6.7%.

As for `O=C(O)C1CN(CC=CP(=O)(O)O)CCN1` (stereo not drawn) [CPP-ene, 4-(3-phosphonoprop-2-enyl)piperazine-2-carboxylic acid], the Ki was 110 nM at NR1/NR2A [12], 140 nM on NR1/NR2B [13], 1460 nM on NR1/NR2C [14] and 1840 nM on NR1/NR2D [15].

Turning to `N[C@H](CCCP(=O)(O)O)C(=O)O` [D-AP5], the Ki on NR1/NR2A [12] is 280 nM; on NR1/NR2B [13], 460 nM; at NR1/NR2C [14], 1640 nM; at NR1/NR2D [15], 3710 nM.

On to `O=C(O)C1NCCN(C(=O)c2ccc(-c3ccccc3)cc2)C1C(=O)O` (stereo not drawn) [PBPD, 1-(4-phenylbenzoyl)-piperazine-2,3-dicarboxylic acid, reference compound], for which the Ki was 15800 nM at NR1/NR2A [16]; 5010 nM on NR1/NR2B [8] (recombinant, NR1a co-expressed in Xenopus oocytes, mean +/- SEM, read-out: NR1/NR2B Ki); 8980 nM on NR1/NR2C [9] (recombinant, NR1a co-expressed in Xenopus oocytes, mean +/- SEM, read-out: NR1/NR2C Ki); 4290 nM on NR1/NR2D [10] (recombinant, NR1a co-expressed in Xenopus oocytes, mean +/- SEM, read-out: NR1/NR2D Ki).
